How the values were obtained:
[1] = molecular target: T1, Cholesterol side-chain cleavage enzyme, mitochondrial (Bos taurus, UniProt P00189); assay: Inhibition of bovine adrenal desmolase at 25 uM; settings: cattle; for Inhibition: 25 µM
T1 sequence (P00189 whole entry): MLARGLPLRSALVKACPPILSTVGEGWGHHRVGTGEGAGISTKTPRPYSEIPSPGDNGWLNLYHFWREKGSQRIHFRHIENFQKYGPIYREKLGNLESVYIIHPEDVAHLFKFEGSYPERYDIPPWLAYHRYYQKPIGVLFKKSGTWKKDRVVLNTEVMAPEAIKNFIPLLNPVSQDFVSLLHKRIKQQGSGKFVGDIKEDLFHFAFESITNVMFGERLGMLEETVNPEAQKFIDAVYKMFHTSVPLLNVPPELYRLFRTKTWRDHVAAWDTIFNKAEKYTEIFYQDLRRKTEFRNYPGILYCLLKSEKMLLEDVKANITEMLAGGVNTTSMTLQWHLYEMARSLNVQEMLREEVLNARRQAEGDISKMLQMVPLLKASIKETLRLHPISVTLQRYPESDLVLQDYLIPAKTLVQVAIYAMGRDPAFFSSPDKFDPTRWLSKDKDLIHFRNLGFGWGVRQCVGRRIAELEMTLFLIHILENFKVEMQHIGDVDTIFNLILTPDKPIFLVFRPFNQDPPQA

Aromatase = molecular target: T2, Aromatase (Homo sapiens, UniProt P11511)
T2 sequence (P11511 whole entry): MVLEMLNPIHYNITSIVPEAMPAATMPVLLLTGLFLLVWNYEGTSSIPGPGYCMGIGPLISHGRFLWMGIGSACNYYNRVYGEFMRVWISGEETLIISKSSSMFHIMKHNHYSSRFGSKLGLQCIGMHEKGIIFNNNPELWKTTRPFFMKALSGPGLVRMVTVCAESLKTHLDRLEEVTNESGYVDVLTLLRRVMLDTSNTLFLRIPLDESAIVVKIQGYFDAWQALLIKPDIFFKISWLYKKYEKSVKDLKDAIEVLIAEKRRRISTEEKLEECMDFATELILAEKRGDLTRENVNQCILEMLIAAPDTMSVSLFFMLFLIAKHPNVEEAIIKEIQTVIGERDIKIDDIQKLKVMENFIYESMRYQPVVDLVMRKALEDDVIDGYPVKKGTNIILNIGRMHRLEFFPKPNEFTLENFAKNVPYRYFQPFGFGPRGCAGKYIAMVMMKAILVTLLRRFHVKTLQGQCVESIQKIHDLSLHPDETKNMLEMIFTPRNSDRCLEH
Description: Concentration inhibiting Aromatase

[2] = molecular target: T1, Cholesterol side-chain cleavage enzyme, mitochondrial; assay: Inhibition of bovine adrenal desmolase

CC[C@@]1(c2ccc(N)cc2)CCC(=O)NC1=O
inhibition at 25 µM [1]: 36%

CC[C@]1(c2ccc(N)cc2)CCC(=O)NC1=O
inhibition at 25 µM [1]: 67%

Nc1ccc(C2(C3CCCC3)CCC(=O)NC2=O)cc1 (centres undefined)
inhibition at 25 µM [1]: 59%
IC50 (Aromatase): 1.2 µM

Nc1ccc(C2(C3CCCCC3)CCC(=O)NC2=O)cc1 (single isomer, unassigned; (+))
Inhibition [1]: 19%
IC50 [2]: 82 µM
IC50 (Aromatase): 0.15 µM

Nc1ccc(C2(C3CCCCC3)CCC(=O)NC2=O)cc1 (single isomer, unassigned; (-))
Inhibition [1]: 39%
IC50 (Aromatase): 4.6 µM

Nc1ccc(C2(C3CCCCC3)CCC(=O)NC2=O)cc1 (stereo in doubt; 2)
Inhibition [1]: 31%
IC50 [2]: 67 µM
IC50 (Aromatase): 0.3 µM

CCC1(c2ccc(N)cc2)CCC(=O)NC1=O (centres undefined) [AMINOGLUTETHIMIDE]
inhibition at 25 µM [1]: 57%
IC50 [2]: 29 µM

Reference: ChEMBL document CHEMBL1126077 (J Med Chem, 1992)
